Laboratory results taken from patent US9014457B2, “Quantifying cell death” (UCL Business PLC, priority 2009, dated 2015).
“Also recorded” adds a separate entry of the source. Read-outs that look alike come from different tables or passages of the source.

Experiments:
cortical neurons = settings: cited from earlier work
[1] = in comparison to 360° laser trabeculoplasty; cited from earlier work
RGC [2] = settings: rat, in vivo; cited from earlier work
RGC [3] = test: Staurosporine (SSP)-induced RGC apoptosis model, time-lapse in vivo imaging; design: species or system rat
Protocol: For analysis of staurosporine-induced RGC apoptosis, 14 DA rats received 0.5 μg of intravitreal staurosporine (SSP) in 5 μl phosphate-buffered saline (PBS); both Sigma Aldrich UK, to induce RGC apoptosis as previously described (Cordeiro et al., 2004). Animals were imaged immediately for up to 6 hours, after which they were killed for histology.
Using a method the inventors have recently described, rats were given 2.5 μg of intravitreal Alexa Fluor 488 labelled annexin V in 5 μl PBS for identification of RGC apoptosis, 2 hours before in vivo imaging (Cordeiro et al., 2004). For mice, the inventors used 1 μl of a 0.25 mg/ml solution of IR-labelled annexin (Annexin-IR) in intravitreal injections as previously described (Schmitz-Valckenberg et al., 2008). […]
All rats had in vivo retinal imaging performed at regular and set intervals after experimental treatment, using a prototype Zeiss confocal scanning laser ophthalmoscope (cSLO), as previously described (Cordeiro et al., 2004; Maass et al., 2007). […] Colour and raw scatter plots of annexin and PI fluorescence intensity were constructed, so data could be analysed in a similar manner to data derived by in vitro FACS analysis. […] Fluorescence intensity counts derived from raw scatter plots were used to quantify each phase of cell death. […]

RGC [4] = settings: previously established; cited from earlier work
cortical astrocytes = settings: 1 mM glutamate or 10 mM methyl-succinate; cited from earlier work
RGC apoptosis = test: DARC in vivo imaging of OHT rat eyes, topical CoQ10; settings: topical on Day 0, 1, 7, 21 & 42; at 3 & 6 weeks after elevated IOP; vs control
Source text: FIG. 14B DARC in vivo imaging of OHT rat eyes at 3 weeks after elevated intraocular pressure (IOP) showing increased RGC apoptosis (white spots) in Control (A) compared to CoQ10-treated (B) eyes.

Cyclophilin D = test: Histological cross sections of retina stained for Cyclophilin D, OHT rat eyes; format: in vivo
[5] = in vivo; cited from earlier work
[6] = test system: ROS production in the retina; test: ROS production in mouse retina in vivo visualized with DHE; settings: intravitreal; vs vehicle/control eye
Protocol: FIG. 12B. The effects of rotenone on ROS production in mouse retina in vivo. ROS production visualized with DHE (dihydroethidium). DHE is a non-fluorescent agent, reacting with ROS intracellularly to produce a fluorescent oxidative product which can be detected. Rotenone (50 uM, 1 ul) was intravitreally injected into the one eye (C57) and the same volume of vehicle (saline) injected into the contralateral eye. DHE (1 ul) was then injected intravitreally and both eyes imaged to detect ROS production using a SLO machine.
FIG. 12C. The effects of PMA in producing ROS in mouse retina in vivo. PMA (50 ug/ml, 1 ul) was injected intravitreally into the one eye and saline (1 ul) into the contralateral eye. DHE (1 ul) was simultaneously injected for detecting ROS production.
FIG. 12D. The effects of Aβ25-35 on ROS production in vivo. DHE was intravitreally injected into the both eyes of a mouse to detect ROS production.

[7] = test system: mitochondrial membrane potential in the retina; test: Mitochondrial membrane potential (MMP) in mouse eye in vivo, Rho123 fluorescence
Protocol: FIG. 11B. Early investigations show the effects of intravitreal rotenone on mitochondrial membrane potential (MMP) in a mouse eye in vivo.
FIG. 11C. Using the same analysis, we looked at the effects of Aβ25-35 on MMP in vivo in a mouse eye. Rho123 is a fluorescent probe, used to detect the changes in mitochondrial fluorescent density. […] The dashed line in C represents baseline fluorescence before Rho123 was injected

control cells = settings: cited from earlier work
RGC [8] = test: Abeta (Aβ25-35)-induced RGC death model, in vivo cSLO imaging with annexin V and PI; design: species or system mouse
Protocol: For the analysis of Abeta, freshly made Aβ25-35 (Sigma-Aldrich, 3.40 nmol) (Dahlgren et al., 2002) was intravitreally injected into C57 mice (n=10) (Maass et al., 2007). Animals were imaged at 72 hours. For AD 3× Tg-AD studies, 4 eyes (all female, 14 months) with 2 eyes from aged control mice (PS1KI; female, 18 months) were assessed. 3× Tg-AD and control PS1KI mice were obtained from a colony (maintained at CeSI) established after a generous gift of Frank Laferla. Intravitreal phorbol myristate acetate (1 μl of 10 μg/ml) was administered to left eyes of 3× Tg-AD animals, at the same time as annexin V and PI.
Using a method the inventors have recently described, rats were given 2.5 μg of intravitreal Alexa Fluor 488 labelled annexin V in 5 μl PBS for identification of RGC apoptosis, 2 hours before in vivo imaging (Cordeiro et al., 2004). For mice, the inventors used 1 μl of a 0.25 mg/ml solution of IR-labelled annexin (Annexin-IR) in intravitreal injections as previously described (Schmitz-Valckenberg et al., 2008).
In order to identify necrotic RGCs in rats (2 μl) and mice (1 μl), propidium iodide (PI; 0.4 mg/ml, 1% solution, Sigma-Aldrich, Dorset UK) was administered intravitreally at the same time as annexin, 2 hours before in vivo imaging. PI intercalates into nucleic acids, binding to double-stranded DNA, but only crosses the plasma membrane of non-viable cells. Cells that have lost membrane integrity are thus identified by fluorescent red PI staining throughout the nuclei.
In mice, the inventors used instrumentation as previously described (Maass et al., 2007; Schmitz-Valckenberg et al., 2008), with a modified cSLO (Heidelberg Retina Angiograph 2, Heidelberg Engineering, Dossenheim, Germany) and a wide-field lens (55°). The fluorescein angiogram (488 nm argon laser) and indocyanine green (IR 790 nm diode laser) settings were used to detect PI and IR-labelled annexin respectively. The same software was used to analyse video sequenced images as described before with whole retinal monochrome images from each eye recorded and colourised. Dual-color images were produced by combining each of the grayscale images from the cSLO into the red (PI), and green (IR annexin) of an RGB color image.
The left eye of each animal was treated with intravitreal 0.40 nmol MK801 at the same time as Abeta. Wide-angle retinal images were recorded 2 hours following intravitreal annexin (green) and PI (red), as previously described (Guo at al., 2006).
To assess the relative levels of early apoptosis, late apoptosis and necrosis the inventors studied the co-localization of PI and annexin V using ImageJ software with the Intensity Correlation Analysis plugin (Li et al., 2004). Colour and raw scatter plots of annexin and PI fluorescence intensity were constructed from plugin-generated data for each animal. Corresponding scatter plots (blue) from the eyes shown in FIG. 8a-b are illustrated in FIG. 8c-d. The data were analysed in a similar manner to data derived by in vitro FACS analysis, with four quadrants (midlines shaded in colour overlay as red, green, blue and yellow) enabling separation of the different phases of cell death as annexin V positive (early apoptosis, green), annexin V and PI double positive (late apoptosis, yellow) and PI positive (necrosis, red). Thresholds were set automatically by the plugin for each analysis of each eye. The inventors then used fluorescence intensity counts from the raw scatter plots to quantify each phase of cell death.
To further assess the analytical power of the technique, the inventors next investigated whether the level of oxidative stress in Abeta-treated eyes influenced the phase of cell death and whether this was possible to visualize in vivo. […] FIG. 8f-g are taken from the right untreated (F) and left PMA-treated (G) eye of an animal treated 72 hours previously with 3.40 nmol Aβ25-35. […]

[9] = test system: calcium signals in the retina; test: Calcium signals in vivo in a mouse eye, Fura red; settings: ten minutes after 5 nmol; vs pre-treatment, p<0.001
Source text: FIG. 13B. The effects of Aβ25-35 on calcium signals in vivo in a mouse eye. […] Ten minutes after Aβ25-35 (5 nmol) application (as shown D) however, a stronger fluorescent signal was detected in the RGCL (C).

RGC [10] = settings: previously established; cited from earlier work; remark: listed apart in the source
[11] = test system: calcium signal in the retina; test: Calcium transients in calcium transgenic mouse eye (FCIPs) in vivo; settings: intravitreal; vs baseline
Source text: FIG. 13C Calcium transgenic mice with genetically-encoded fluorescent Ca2+ indicator proteins (FCIPs) were imaged in vivo. Aβ25-35-induced calcium transients in a calcium transgenic mouse eye. […] Analysis of the fluorescent signal after Aβ injection at t=o, is shown graphically with fluorescence seen in the areas Identified by coloured boxes in inset (D,E).

[12] = human, in vivo; cited from earlier work
RGC [13] = settings: topical application; cited from earlier work
[14] = test system: retina autofluorescence (NADH, FAD); settings: intravitreal administration
Source text: Detection of FCCP-induced retinal metabolic changes in vivo in a mouse eye.

Compound: C[C@]12CC[C@@H]3c4ccc(O)cc4CC[C@H]3[C@@H]1CC[C@@H]2O [17β-estradiol]
- neuronal integrity and function (cortical neurons): increased

Compound: Brc1c(NC2=NCCN2)ccc2nccnc12 [Brimonidine]
- visual field deterioration [1]: reduced
- RGC survival (RGC [2]): positive effect

Compound: CN[C@@H]1C[C@H]2O[C@@](C)([C@@H]1OC)n1c3ccccc3c3c4c(c5c6ccccc6n2c5c31)C(=O)NC4 [SSP, staurosporine]
- cell death profile (phases) at time of peak apoptosis (RGC [3]; 2 h, co-localization scatter plot analysis): significantly more cells in the late phase of apoptosis; also recorded: significantly more RGCs in the phases of late apoptosis
- PI staining over time (RGC [3]; SSP-treated rat eye, time-lapse video over 5 hours): clear increase
- time point of maximal apoptosis (RGC [4]): 2 h

Compound: N[C@@H](CCC(=O)O)C(=O)O [glutamate]
- slow progressive mitochondrial depolarization in response to Aβ 25-35 (cortical astrocytes): abolished almost completely

Compound: COC1=C(OC)C(=O)C(C/C=C(\C)CC/C=C(\C)CC/C=C(\C)CC/C=C(\C)CC/C=C(\C)CC/C=C(\C)CC/C=C(\C)CC/C=C(\C)CC/C=C(\C)CCC=C(C)C)=C(C)C1=O [CoQ10, Ubiquinone]
- RGC apoptosis (RGC apoptosis): significantly reduced
- Cyclophilin D (CyD) in retina, histological grading (Cyclophilin D; 3 weeks after induction of OHT): increased; also recorded: significant increase
- Cyclophilin D (CyD) in retina, histological grading (Cyclophilin D; 12 weeks after elevated IOP): not at 12 weeks
- neuroprotection [5]: highly effective

Compound: C=C(C)[C@H]1Cc2c(ccc3c2O[C@@H]2COc4cc(OC)c(OC)cc4[C@@H]2C3=O)O1 [Rotenone]
- ROS production in the retina (DHE fluorescence) [6]: stronger fluorescent signals of ROS production
- mitochondrial membrane depolarization (Rho123 signal) ([7]; intravitreal 20 uM, 1 ul, vs vehicle control): significant mitochondrial membrane depolarization
- ROS production (MitoSox) (control cells): significant increase

Compound: Aβ25-35: amyloid beta peptide fragment 25-35 (Sigma-Aldrich), induces RGC apoptosis (GSNKGAIIGLM; Amyloid-beta protein 42; UniProt P05067 696-706, looked up, fragment)
- ROS production in the retina (DHE fluorescence) [6]: significant increase of ROS production
- MMP in the retina (Rho123) ([7]; vs baseline, few minutes delay, p<0.01): significant loss
- cell death profile (phases) at time of peak apoptosis (RGC [8]; 72 h, co-localization scatter plot analysis, listed as Abeta): significantly more cells in the late phase of apoptosis; also recorded: significantly more RGCs in the phases of late apoptosis
- RGC death (RGC [8]; 72 hours after intravitreal administration of 3.40 nmol): Significant RGC death
- calcium signals in the retina (Fura red) [9]: significant increase
- time point of maximal apoptosis (RGC [10]): 72 h
- fluorescent calcium signal in the retina [11]: immediate fluorescent calcium signal

Compound: NGF: nerve growth factor
- functional effect in patients [12]: neuroprotective effects functionally
- RGC apoptosis (RGC [13]): reducing

Compound: N#CC(C#N)=NNc1ccc(OC(F)(F)F)cc1 [FCCP, Carbonylcyanide-p-trifluoromethoxy-phenylhydrazone]
- real time autofluorescence in the retina [14]: increase
